The values that follow come from patent US10485235B2, “Aryloxypyrimidinyl ethers as herbicides” (FMC Corporation, priority 2015, dated 2019).

The melting point is the temperature of the solid-liquid transition.

In data set [1] the test system is barnyardgrass (Echinochloa crus-galli). The experiment in a line: Test A preemergence, barnyardgrass. It counts as in vivo. The following applies: Echinochloa crus-galli, pre-emergence, 240 h, Preemergence, 0 to 100 scale (0 no effect, 100 complete control), read-out: Plant response rating, Barnyardgrass; for pest or weed control at 125 g/ha: 125 g ai/ha. The method, boiled down: (§1)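 Approximately 10-day greenhouse assay. Formulated chemical (non-phytotoxic solvent plus surfactant) applied preemergence to soil over seeds or postemergence to plants of 2 to 10 cm. Endpoint: visual percent control, 0–100.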

Data set [2] concerns pigweed (Amaranthus retroflexus). The experiment in a line: Test A preemergence, pigweed. The conditions noted are these: Amaranthus retroflexus, pre-emergence, 240 h, Preemergence, 0 to 100 scale (0 no effect, 100 complete control), read-out: Plant response rating, Pigweed; for pest or weed control at 31 g/ha: 31 g ai/ha; for pest or weed control at 125 g/ha: 125 g ai/ha. It counts as in vivo. In a few lines:
as §1

In data set [3] the test system is ryegrass, Italian (Italian ryegrass, Lolium multiflorum). The experiment in a line: Test A postemergence, Italian ryegrass. It counts as in vivo. The conditions noted are these: Lolium multiflorum, post-emergence, 240 h, postemergence, 0 to 100 scale, 0 is no effect, 100 is complete control, approximately 10 days, read-out: Plant response rating, Ryegrass, Italian; for pest or weed control at 31 g/ha: 31 g ai/ha; for pest or weed control at 125 g/ha: 125 g ai/ha. The method, boiled down:
as §1

Data set [4] has as its system pigweed (Amaranthus retroflexus). Description: Test A postemergence, pigweed. It counts as in vivo. The following applies: Amaranthus retroflexus, post-emergence, 240 h, postemergence, 0 to 100 scale, 0 is no effect, 100 is complete control, approximately 10 days, read-out: Plant response rating, Pigweed; for pest or weed control at 31 g/ha: 31 g ai/ha; for pest or weed control at 125 g/ha: 125 g ai/ha. The method, boiled down:
as §1

Data set [5] concerns ducksalad (Heteranthera limosa). Description: Test B flooded paddy test, ducksalad. In kind it is in vivo. The conditions noted are these: Heteranthera limosa; 250 g ai/ha, Flood; visual rating after 13 to 15 days; scale 0 to 100, 0 is no effect, 100 is complete control; read-out: Plant response rating, Ducksalad. The method, boiled down: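 Plants grown to the 2-leaf stage; pots flooded to 3 cm above soil and compounds applied directly into the paddy water, depth held throughout. After 13 to 15 days in the greenhouse, injury was rated visually against untreated controls on a 0–100 scale (0 no effect, 100 complete control).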

As to `N#Cc1cccc(Oc2ncc(F)cn2)c1OCCCC(F)(F)F` [Compound 4, 3-[(5-fluoro-2-pyrimidinyl)oxy]-2-(4,4,4-trifluorobutoxy)benzonitrile], the melting point fell in the range of 70 to 74 °C. In addition, in data set [1] (31 g ai/ha), the pest or weed control at 31 g/ha was 60%. Also, the pest or weed control at 125 g/ha in data set [1] was determined as 100%. In data set [2], the pest or weed control at 31 g/ha turned out to be 90% and the pest or weed control at 125 g/ha turned out to be 100%. In addition, in data set [3], the pest or weed control at 31 g/ha was 0% and the pest or weed control at 125 g/ha was determined as 40%. In data set [4], the pest or weed control at 31 g/ha stood at 100% and the pest or weed control at 125 g/ha was determined as 100%. For the same compound, the pest or weed control at 250 g/ha in data set [5] was 90%.

Consider `FC(F)(F)COc1c(I)cccc1Oc1ncc(Cl)cn1` [Compound 65], for which the melting point was 87 to 90 °C. In addition, the pest or weed control at 125 g/ha in data set [1] worked out at 70%. In addition, in data set [2], the pest or weed control at 31 g/ha came out at 50% and the pest or weed control at 125 g/ha came out at 100%. Moreover, in data set [3], the pest or weed control at 31 g/ha is 0% and the pest or weed control at 125 g/ha amounted to 10%. Further, in data set [4], the pest or weed control at 31 g/ha was determined as 70% and the pest or weed control at 125 g/ha was found to be 100%. The pest or weed control at 250 g/ha in data set [5] was found to be 100%.
